Type in all cases: in vivo
Data set [1] deals with Spodoptera exigua. The data set is described as follows: whole plant or invertebrate. The note with it: Spodoptera exigua, 24 h, read-out: Spodoptera exigua Mortality (%) 500 ppm. The gist of the method: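 Cabbage leaf discs dipped 5 s in 500 ppm compound (0.05% Tween-80 aqueous), air-dried, fed to about 35 2nd-instar larvae at 28° C, three replicates. Deaths counted at 24 h; mortality corrected against Tween-80 control.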

In data set [2] the test system is Apis cernan. Put plainly: Toxicity test on adult worker bees of Apis cernan, small beaker method. The note with it: 500 ppm, 48 hours. The method, then:
(2) Toxicity Test on Adult Worker Bees of Apis cernan.
Adult worker bees of Apis cernan having the same size were selected for test. The worker bees were collected from beekeeping boxes in the daystart of the test day and tested by using a small beaker method.
Operation process: A small amount of absorbent cotton was put into a 5 mL small beaker, 5 mL of a test liquid medicine (a concentration of 500 ppm) was dropped into the absorbent cotton, and stirred gently to make the absorbent cotton completely wet but not leached obviously, then the small beaker was put into a 500 mL large beaker, then 15 worker bees were put into the large beaker, and finally the large beaker was sealed with gauze. After treatment, the large beaker was placed in a dark room of an artificial climate box. After taking the medicine for 48 hours, a number of live and dead worker bees were investigated.

In data set [3] the test system is Plutella xylostella. Put plainly: whole plant or invertebrate. The note with it: Plutella xylostella, read-out: Plutella xylostella Mortality (%) 500 ppm. A digest of the protocol:
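Cabbage leaf discs dipped 5 s in compound at 500 ppm (0.05% Tween-80 aqueous), air-dried, fed to about 35 2nd-instar larvae at 28° C., triplicate. Dead larvae counted after 24 h; mortality (%) corrected against Tween-80 control.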

The test system of data set [4] is Aphis craccivora. The data set is described as follows: whole plant or invertebrate. The note with it: Aphis craccivora, 24 h, read-out: Aphis craccivora Mortality (%) 500 ppm. A digest of the protocol:
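Wingless adults feeding on bean sprouts were dipped with the sprouts for 5 s in 500 ppm compound in aqueous 0.05% Tween-80, air-dried, then held at 23° C. Dead aphids counted after 24 h, triplicate, with 0.05% Tween-80 as control. Mortality (%) = (control live − treated live)/control live × 100.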

Data set [5] relates to Solenopsis invicta. Put plainly: whole plant or invertebrate. The note with it: Solenopsis invicta, water test tube poison-feeding. The gist of the method:
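Fire ants fed compound by water test-tube poison-feeding at 100 ppm in aqueous 0.05% Tween-80/5% honey (from 10 g/L DMSO stock), kept at 25 °C. Live and dead ants counted at 24 and 72 h; mortality (%) calculated relative to live ants in the untreated control.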

Data set [6] deals with Bombyx mori L. Put plainly: Toxicity test on 2nd-instar larvae of Bombyx mori L., leaf immersion feeding method. The note with it: 1000 ppm, 24 hours. The protocol: (1) Toxicity Test on 2nd-Instar Larvae of Bombyx mori L.
Bombyx mori L. is an important economic insect sensitive to pesticides in an agricultural ecosystem, and is also one of the non-target organisms of environmental ecology listed in pesticide registration of China. The 2nd-instar larvae of Bombyx mori L. were used as test objects and tested by using a leaf immersion feeding method.
Operation process: Samples were weighed accurately, and respectively added with 200 μL of dimethyl sulfoxide to prepare 10 g/L mother liquor which was diluted into a concentration of 1000 ppm with an aqueous solution containing 0.05% of Tween-80 during the test. Young cotyledons of mulberries were collected, washed and air-dried, immersed in a liquid medicine, taken out after 5 seconds, naturally air-dryed, and then transferred into a clean vessel. About 35 2nd -instar larvae of Bombyx mori L. were put into the vessel and fed at a constant temperature of 25° C. Each concentration was repeated 3 times, and an aqueous solution containing 0.05% of Tween-80 was used as a control group. After being treated for 24 hours, a number of dead Bombyx mori L. was counted, and a mortality (%) was calculated according to a formula that mortality (%)=(number of live larvae in the control group −number of treated live larvae)/number of live larvae in the control group * 100%.

[7] abbreviates: 24 h, read-out: Solenopsis invicta Mortality (%) 100 ppm 24 h, 100 ppm, 24 h.
Where [8] appears, read: 72 h, read-out: Solenopsis invicta Mortality (%) 100 ppm 72 h, 100 ppm, 72 h.

The results in this text go back to patent US11401271B2, “Fused heterocyclic compound, pyrazole-ring-containing fused heterocyclic compound, agricultural composition containing thereof, and method of using the composition” (SOUTH CHINA AGRICULTURAL UNIVERSITY, priority 2017, dated 2022).

Molecules are shown by their SMILES. Like-named read-outs stand apart in the source and are kept apart here.

The mortality is the percentage killed.

`CCOC(=O)c1c(SC)nn2c1NC(F)(C(F)(F)F)c1ccccc1-2` (stereo not shown) [Compound A27]: the mortality at 500 ppm in data set [1], in data set [3] and in data set [4] was 100% throughout. The “Toxicity determination Apis cernan Mortality (%)” value in data set [2] worked out at 15%. Besides, the mortality at 100 ppm in data set [5] (setting [7]) was found to be 30%; in data set [5] (setting [8]), 100%. In addition, the “Toxicity determination Bombyx mori L. Mortality (%)” value in data set [6] came out at 10%.

With `C=CC1Nc2cc(C#N)nn2-c2c(Cl)cc(C(F)(F)F)cc21` (stereo not shown) [Compound C4], the mortality at 500 ppm in data set [1] is 76%; in data set [3], 86%; in data set [4], 100%. For the same molecule, the “Toxicity determination Apis cernan Mortality (%)” value in data set [2] was 0%. Also, the mortality at 100 ppm in data set [5] (setting [7]) was 20%; in data set [5] (setting [8]), 87%. In addition, in data set [6], the “Toxicity determination Bombyx mori L. Mortality (%)” value turned out to be 3%.

Take `CNC(=O)C1(CC#N)Nc2c([S+](C)[O-])c(C(C)=O)nn2-c2c(Cl)cc(C(F)(F)F)cc21` (stereo not shown) [Compound C45]: the mortality at 500 ppm in data set [1] came out at 97%; in data set [3], 93%; in data set [4] it was 86%. In addition, the “Toxicity determination Apis cernan Mortality (%)” value in data set [2] was determined as 3%. Moreover, the mortality at 100 ppm in data set [5] (setting [7]) is 25%; in data set [5] (setting [8]), 71%. In addition, the “Toxicity determination Bombyx mori L. Mortality (%)” value in data set [6] is 6%.

Regarding `CC1(C)Nc2c([S+]([O-])C(F)(F)F)c(C#N)nn2-c2ccccc21` (stereo not shown) [Compound A8], the mortality at 500 ppm in data set [1] amounted to 90%; in data set [3], 100%; in data set [4], 100%. The “Toxicity determination Apis cernan Mortality (%)” value in data set [2] is 10%. Moreover, the mortality at 100 ppm in data set [5] (setting [7]) came to 26%; in data set [5] (setting [8]) it was 93%. In addition, the “Toxicity determination Bombyx mori L. Mortality (%)” value in data set [6] is 12%.

Turning to `N#Cc1nn2c(c1[S+]([O-])C(F)(F)F)NC(CC(N)=O)(C(N)=O)c1cc(C(F)(F)F)cc(Cl)c1-2` (stereo not shown) [Compound C38], the mortality at 500 ppm in data set [1] is 90%; in data set [3], 100%; in data set [4], 100%. The “Toxicity determination Apis cernan Mortality (%)” value in data set [2] was 0%. Besides, the figures for the mortality at 100 ppm in data set [5] (setting [7]) and in data set [5] (setting [8]) were 25% and 90%, respectively. In addition, in data set [6], the “Toxicity determination Bombyx mori L. Mortality (%)” value was 4%.

Consider `C=CC1(CC(F)(F)F)Nc2cc(C#N)nn2-c2c(Cl)cc(C(F)(F)F)cc21` (stereo not shown) [Compound C2], for which the mortality at 500 ppm came out at 90% in data set [1], 100% in data set [3] and 100% in data set [4]. For the same molecule, in data set [2], the “Toxicity determination Apis cernan Mortality (%)” value is listed as 10%. In addition, the mortality at 100 ppm in data set [5] (setting [7]) amounted to 26%; in data set [5] (setting [8]), 93%. In addition, in data set [6], the “Toxicity determination Bombyx mori L. Mortality (%)” value was 5%.

In the case of `CC1(C)Nc2c(Br)c(C(=O)N3CCCCC3)nn2-c2ccccc21` [Compound A7], the mortality at 500 ppm in data set [1], in data set [3] and in data set [4] was 100% each time. Moreover, the “Toxicity determination Apis cernan Mortality (%)” value in data set [2] came out at 6%. For the same molecule, the mortality at 100 ppm amounted to 20% in data set [5] (setting [7]) and 100% in data set [5] (setting [8]). The “Toxicity determination Bombyx mori L. Mortality (%)” value in data set [6] was determined as 6%.

For the molecule `COc1ccc(-c2cn3c(c2C(C)=O)NC(C#N)(C#N)c2ccc([N+](=O)[O-])cc2-3)cc1` [Compound B3], the mortality at 500 ppm in data set [1], in data set [3] and in data set [4] was 100% in each case. For the same molecule, in data set [2], the “Toxicity determination Apis cernan Mortality (%)” value is reported as 3%. In addition, the mortality at 100 ppm in data set [5] (setting [7]) stood at 24%; in data set [5] (setting [8]), 100%. For the same molecule, the “Toxicity determination Bombyx mori L. Mortality (%)” value in data set [6] was 0%.

As for `N#CCC1(C(N)=O)Nc2c([S+]([O-])C(F)(F)F)c(C#N)nn2-c2c(Cl)cc(C(F)(F)F)cc21` (stereo not shown) [Compound C32], the mortality at 500 ppm in data set [1] is 90%; in data set [3] it was 100%; in data set [4], 95%. Besides, the “Toxicity determination Apis cernan Mortality (%)” value in data set [2] turned out to be 9%. Further, the mortality at 100 ppm in data set [5] (setting [7]) came to 25%; in data set [5] (setting [8]), 100%. In addition, the “Toxicity determination Bombyx mori L. Mortality (%)” value in data set [6] amounted to 6%.

Consider `C=CC(=O)Nc1ccc2c(c1)-n1cc(C#N)c(C#N)c1NC2(C#N)C#N` [Compound B8], for which the mortality at 500 ppm in data set [1], in data set [3] and in data set [4] was 100% in each case. Also, the “Toxicity determination Apis cernan Mortality (%)” value in data set [2] stood at 4%. Moreover, the mortality at 100 ppm was found to be 45% in data set [5] (setting [7]) and 100% in data set [5] (setting [8]). Further, in data set [6], the “Toxicity determination Bombyx mori L. Mortality (%)” value is 5%.

Regarding `CC1(C)Nc2cc(C#N)nn2-c2ccccc21` [Compound A1, 5,5-dimethyl-4,5-dihydropyrazole[1,5-α]quinazoline-2-cyano], the mortality at 500 ppm in data set [1] stood at 90%; in data set [3], 95%; in data set [4], 100%. In data set [2], the “Toxicity determination Apis cernan Mortality (%)” value worked out at 12%. In addition, the figures for the mortality at 100 ppm in data set [5] (setting [7]) and in data set [5] (setting [8]) were 20% and 87%, respectively. Moreover, in data set [6], the “Toxicity determination Bombyx mori L. Mortality (%)” value is reported as 9%.

Turning to `CC1(C)Nc2c(N)c(C#N)nn2-c2ccccc21` [Compound A15], the mortality at 500 ppm in data set [1], in data set [3] and in data set [4] was 100% in each case. The “Toxicity determination Apis cernan Mortality (%)” value in data set [2] came out at 5%. For the same molecule, the mortality at 100 ppm is 24% in data set [5] (setting [7]) and 100% in data set [5] (setting [8]). The “Toxicity determination Bombyx mori L. Mortality (%)” value in data set [6] is on record as 8%.

Consider `C=CC1(CCl)Nc2c(-c3ccccc3C(F)(F)F)c(C#N)nn2-c2c(Cl)cc(C(F)(F)F)cc21` (stereo not shown) [Compound C9], for which the mortality at 500 ppm in data set [1], in data set [3] and in data set [4] was 100% each time. Also, in data set [2], the “Toxicity determination Apis cernan Mortality (%)” value stood at 9%. Further, the mortality at 100 ppm turned out to be 39% in data set [5] (setting [7]) and 100% in data set [5] (setting [8]). In addition, the “Toxicity determination Bombyx mori L. Mortality (%)” value in data set [6] turned out to be 8%.

`C=CC1Nc2c(-c3cc(C)oc3C)c(C#N)nn2-c2c(Cl)cc(C(F)(F)F)cc21` (stereo not shown) [Compound C50]: the mortality at 500 ppm was 86% in data set [1], 81% in data set [3] and 90% in data set [4]. In data set [2], the “Toxicity determination Apis cernan Mortality (%)” value was 2%. Also, the results for the mortality at 100 ppm in data set [5] (setting [7]) and in data set [5] (setting [8]) were 26% and 86%, respectively. The “Toxicity determination Bombyx mori L. Mortality (%)” value in data set [6] was found to be 5%.

As for `COC(=O)CC1(C(=O)OC)Nc2c([S+]([O-])C(F)(F)F)c(C#N)nn2-c2c(Cl)cc(C(F)(F)F)cc21` (stereo not shown) [Compound C37], the mortality at 500 ppm in data set [1], in data set [3] and in data set [4] was 100% in each case. Also, in data set [2], the “Toxicity determination Apis cernan Mortality (%)” value is 8%. Moreover, the mortality at 100 ppm came to 20% in data set [5] (setting [7]) and 100% in data set [5] (setting [8]). In data set [6], the “Toxicity determination Bombyx mori L. Mortality (%)” value stood at 6%.

On to `N#Cc1cn2c(c1C#N)NC(C#N)(C#N)c1ccc(Br)cc1-2` [Compound B9], for which the mortality at 500 ppm in data set [1], in data set [3] and in data set [4] was 100% in each case. Moreover, the “Toxicity determination Apis cernan Mortality (%)” value in data set [2] was determined as 5%. The values for the mortality at 100 ppm in data set [5] (setting [7]) and in data set [5] (setting [8]) were 38% and 100%, respectively. For the same molecule, the “Toxicity determination Bombyx mori L. Mortality (%)” value in data set [6] worked out at 0%.
